Assay results reported in patent US20160355483A1, “COMPOUND BINDING TO PPARG BUT NOT ACTING AS PROMOTER AND PHARMACEUTICAL COMPOSITION FOR TREATING PPARG-RELATED DISEASES CONTAINING SAME AS ACTIVE INGREDIENT” (Hyundai Pharm Co., Ltd., priority 2014, published 2016).
“Also recorded” adds a separate entry of the source.

Experiments:
[1] = biological target: T1, PPARG (peroxisome proliferator activated receptor-gamma), GST-PPARG-LBD (Homo sapiens, UniProt P37231); assay: LanthaScreen TR-FRET PPARG Competitive Binding Assay; set-up: key: “+” indicates the degree of the binding activity, and as the number of “+” increases, the binding activity is stronger; ++: “+” indicates the degree of the binding activity, and as the number of “+” increases, the binding activity is stronger; +++: “+” indicates the degree of the binding activity, and as the number of “+” increases, the binding activity is stronger; ++++: “+” indicates the degree of the binding activity, and as the number of “+” increases, the binding activity is stronger; settings: degree of binding activity
T1 construct: 15 μL of 5 nM GST-PPARG-LBD and 5 nM Tb-GST-antibody were added; purchased Invitrogen PV4894
T1 sequence (P37231 238-503 limits assumed): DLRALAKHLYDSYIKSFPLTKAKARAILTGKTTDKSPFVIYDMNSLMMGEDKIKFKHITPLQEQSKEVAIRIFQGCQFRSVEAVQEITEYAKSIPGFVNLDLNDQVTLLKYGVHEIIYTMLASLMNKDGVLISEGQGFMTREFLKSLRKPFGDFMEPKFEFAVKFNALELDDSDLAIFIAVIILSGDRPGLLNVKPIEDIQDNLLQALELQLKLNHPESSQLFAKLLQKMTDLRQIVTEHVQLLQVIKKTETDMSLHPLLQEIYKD
How it was run: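 Ratio of 518 nm to 488 nm time-resolved emission after a 1 h room-temperature incubation, in competition format with GST-PPARG ligand-binding domain. Values are expressed as 100% minus compound-to-vehicle ratio and related to rosiglitazone binding.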

[2] = biological target: T2, HERG (Human Ether-a-go-go-Related Gene) channel (Homo sapiens, UniProt Q12809); assay: Evaluation of cardiotoxicity, patch-clamp on HEK293 cells expressing HERG channel; assay type: cell-based; settings: HERG peak tail current
T2 construct: expressed in transfected cells; host or cells: HEK293
Description: HEK293 cells expressing HERG (Human Ether-a-go-go-Related Gene) channel safely were cultured in MEM (Minimum Essential Medium) supplemented with 10% fetal bovine serum (FBS), 1 mM sodium pyruvate, 0.1 mM non-essential amino acid solution, 100 units/ml penicillin-streptomycin, 100 μg/ml streptomycin sulfate and 100 μg/ml zeocin under the condition of air:CO2=95:5. When the cells were grown to 60-80% confluency, the cells were loaded in the medium supplemented with 0.25% trypsin and 0.02% EDTA (ethylenediaminetertraacetic acid) for 3 minutes. The cells were then washed with a fresh medium and then dispensed on a new plastic culture dish. For the electrophysiological record, the cells were seeded on a glass cover slip of 5 mm in diameter, followed by incubation in a 24-well plate for 5-24 hours. Then, the cells were transferred into the recording chamber.
The current value of all the cells was measured by the conventional patch-clamp technique or Port-a-Patch (Nanion, Germany) semiautomatic technique. The pH of the external bath solution containing 136 mM NaCl, 5.4 mM KCl, 1.8 mM CaCl2, 1 mM MgCl2, 10 mM glucose, and 10 mM HEPES (4-(2-hydroxyethyl)-1-piperazineethanesulfonic acid) was adjusted to 7.4 using NaOH. The pH of the intracellular pipette solution containing 130 mM KCl, 1 mM MgCl2, 10 mM EGTA (ethylene glycol tetraacetic acid), 5 mM Mg-ATP, and mM HEPES was adjusted to 7.2 using KOH.
In the conventional patch-clamp technique, the patch pipette was pulled by a PP-83 pipette puller (Narishige, Tokyo, Japan), so that it had 2-4 MΩ of resistance in the external bath solution. The ionic current was recorded by using EPC7 pulse amplifier (HEKA electronic, Germany). The voltage-clamp amplification was regulated using the pClamp computer program (Axon Instruments, USA), and the obtained data were analyzed. During the recording, the solution above was continually spread on HEK293 cells in the chamber. For the recording, the Port-a-Patch (Nanion, Germany) semiautomatic patch system was used, and the amplifier used herein was EPC10.
The membrane potential was maintained at −80 mV, which was changed to +20 mV for 4 seconds, then changed to −50 mV for 6 seconds and then maintained again at −80 mV. The changes were made every 25 seconds.
To obtain the concentration-reaction curve in the presence of the drug, dose-dependent inhibition was entered into the Hill formula represented by mathematical formula 1 below.
In mathematical formula 1, Idrug indicates the peak tail current in the presence of a drug, Icontrol indicates the maximum peak tail current in the absence of a drug, D indicates the concentration of a drug, h indicates Hill constant, and IC50 indicates the concentration when the half-maximum peak tail current was suppressed.

[3] = tested on: bone cells; settings: cell culture test; cited from earlier work
[4] = biological target: T3, CYP 2C19 (Homo sapiens, UniProt P33261); assay: CYP (cytochrome P450)-suppressing effect, BD GENTEST kit; assay type: in vitro ADME
T3 construct: purchased BD GENTEST 459400
Description: (§1) To evaluate the CYP (cytochrome P450)-suppressing activity of the compounds prepared in the examples of the invention, the following experiment was performed.
(§2) The analysis of CYP1A2, 2C19, and 3A4 suppressing activity was performed by using a BD GENTEST (459100, 459400, and 459500) kit, and the analysis of CYP 2C9- and 2D6-suppressing activity was performed by using an Invitrogen (P2861 and P2862) kit.
(§3) When the BD GENTEST kit was used, the compounds of the present invention were diluted in acetonitrile at the final concentration of 50×. The NADPH-Cofactor mix was prepared by diluting the Cofactor, G6PDH, and control protein provided by the kit in DW according to the instructed concentration. 4 μL of the compound of the example (50×) was mixed with 96 μL of NADPH-Cofactor mix in a 96-well plate, followed by pre-incubation in a 37° C. incubator for 10 minutes.
(§4) The enzyme/substrate mixture was diluted in the buffer (0.5 M potassium phosphate, pH 7.4) provided by the kit according to the instructed concentration. Each CYP450 enzyme substrate was diluted in DW at a desired concentration respectively according to the corresponding types of CYP450. 100 μL of the enzyme/substrate mixture was loaded in the plate when the pre-incubation had been completed, followed by reaction in a 37° C. incubator for 15 minutes (1A2) and 30 minutes (3A4 and 2C19). Upon completion of the reaction, the mixture was transferred to a white plate, and the fluorescent wavelength was measured with a microplate reader (1A2, 2C19 excitation 410 nm, emission 460 nm; 3A4, excitation 409 nm, emission 530 nm).
(§5) The test results were calculated by the following formula:
(§6) (1−(fluorescence value of the test material/fluorescence value of the vehicle))×100%.

[5] = biological target: T4, CYP 3A4 (Homo sapiens, UniProt P08684); assay: as above; assay type: in vitro ADME
T4 construct: purchased BD GENTEST 459500
Description: as §1, §2, §3, §4, §5, §6

[6] = biological target: T5, CYP1A2 (Homo sapiens, UniProt P05177); assay: as above; assay type: in vitro ADME
T5 construct: purchased BD GENTEST 459100
T5 sequence (P05177 1-516): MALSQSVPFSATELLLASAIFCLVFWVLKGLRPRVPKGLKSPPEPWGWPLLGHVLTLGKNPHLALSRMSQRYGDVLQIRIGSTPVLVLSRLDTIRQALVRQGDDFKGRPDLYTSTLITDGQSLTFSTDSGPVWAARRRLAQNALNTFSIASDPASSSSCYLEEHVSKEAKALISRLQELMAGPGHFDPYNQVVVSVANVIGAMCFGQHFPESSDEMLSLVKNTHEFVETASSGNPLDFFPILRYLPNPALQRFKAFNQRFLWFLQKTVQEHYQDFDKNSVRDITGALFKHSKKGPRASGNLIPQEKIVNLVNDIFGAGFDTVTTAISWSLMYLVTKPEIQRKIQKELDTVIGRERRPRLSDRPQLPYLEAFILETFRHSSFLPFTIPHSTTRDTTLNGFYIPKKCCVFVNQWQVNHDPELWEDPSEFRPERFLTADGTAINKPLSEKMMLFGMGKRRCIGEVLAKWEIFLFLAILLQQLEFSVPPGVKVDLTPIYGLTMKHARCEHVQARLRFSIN
Description: as §1, §2, §3, §4, §5, §6

[7] = biological target: T6, CYP 2C9 (Homo sapiens, UniProt P11712); assay: CYP (cytochrome P450)-suppressing effect, Invitrogen Vivid kit; assay type: in vitro ADME
T6 construct: purchased Invitrogen P2861
Description: as §1, §2
(§7) When the Invitrogen kit was used, the compounds of the present invention were diluted in Vivid CYP450 reaction buffer (1×) at the final concentration of 2.5×. The P450 BACULOSOMES sample and Regeneration system (100×) were diluted in Vivid CYP450 reaction buffer (1×) at different proper concentrations. 80 μL of the compound of the invention (2.5×) and […] of the diluted P450 BACULOSOMES sample mixture were mixed in a U-bottom 96-well plate, followed by pre-incubation for 10 minutes. Vivid CYP450 Substrate and NADP+ (100×) were diluted in Vivid CYP450 reaction buffer (1×) at a desired concentration, respectively, according to their corresponding types of CYP450 and substrates. 20 μL of Substrate-NADP+ mix was loaded in the plate when the pre-incubation had been completed, followed by reaction for 1 hour. Upon completion of the reaction, the reaction mixture was transferred in a white plate and fluorescent wavelength was measured with a microplate reader (2C9 excitation 415 nm, emission 460 nm, 2D6 excitation 400 nm, emission 502 nm).
as §5, §6

[8] = biological target: T7, CYP 2D6 (Homo sapiens, UniProt P10635); assay: as above; assay type: in vitro ADME
T7 construct: purchased Invitrogen P2862
Description: as §1, §2, §7, §5, §6

[9] = tested on: CYP isozymes 1A2, 2C9, 2C19, and 2D6; assay: CYP suppression compared with comparative examples (Table 3); assay type: in vitro ADME; settings: result in words
Description: as §1, §2, §7, §3, §4, §5, §6

T2 sequence (Q12809 whole entry): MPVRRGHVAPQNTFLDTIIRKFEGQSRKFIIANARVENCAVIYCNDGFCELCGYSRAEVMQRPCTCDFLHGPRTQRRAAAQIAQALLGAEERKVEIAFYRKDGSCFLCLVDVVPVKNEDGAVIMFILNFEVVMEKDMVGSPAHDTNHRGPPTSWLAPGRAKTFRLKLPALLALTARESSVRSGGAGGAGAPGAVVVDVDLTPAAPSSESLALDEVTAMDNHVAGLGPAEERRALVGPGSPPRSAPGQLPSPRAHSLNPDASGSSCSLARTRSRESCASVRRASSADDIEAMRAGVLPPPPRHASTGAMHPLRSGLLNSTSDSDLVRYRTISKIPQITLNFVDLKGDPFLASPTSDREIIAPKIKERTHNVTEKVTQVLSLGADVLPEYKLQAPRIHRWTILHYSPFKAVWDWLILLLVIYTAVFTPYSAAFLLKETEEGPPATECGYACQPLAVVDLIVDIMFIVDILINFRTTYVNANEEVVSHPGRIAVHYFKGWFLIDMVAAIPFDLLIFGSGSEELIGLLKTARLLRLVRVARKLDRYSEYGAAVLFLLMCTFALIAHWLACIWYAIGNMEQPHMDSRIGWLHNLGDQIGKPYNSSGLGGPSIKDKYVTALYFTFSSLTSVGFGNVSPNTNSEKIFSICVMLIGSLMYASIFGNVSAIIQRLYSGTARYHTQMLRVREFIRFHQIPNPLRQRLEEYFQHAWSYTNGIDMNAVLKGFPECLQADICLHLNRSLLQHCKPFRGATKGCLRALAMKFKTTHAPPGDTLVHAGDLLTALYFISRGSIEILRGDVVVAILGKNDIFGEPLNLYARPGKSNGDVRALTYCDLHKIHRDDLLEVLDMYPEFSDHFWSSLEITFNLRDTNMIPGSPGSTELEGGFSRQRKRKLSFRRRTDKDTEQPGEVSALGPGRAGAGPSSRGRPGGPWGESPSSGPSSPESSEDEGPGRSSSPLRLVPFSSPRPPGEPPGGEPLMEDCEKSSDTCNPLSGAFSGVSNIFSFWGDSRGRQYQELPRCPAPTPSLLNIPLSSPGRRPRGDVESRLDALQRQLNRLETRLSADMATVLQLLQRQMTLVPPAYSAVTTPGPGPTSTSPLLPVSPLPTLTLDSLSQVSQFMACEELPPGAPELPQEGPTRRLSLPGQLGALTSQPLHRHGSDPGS
T4 sequence (P08684 whole entry): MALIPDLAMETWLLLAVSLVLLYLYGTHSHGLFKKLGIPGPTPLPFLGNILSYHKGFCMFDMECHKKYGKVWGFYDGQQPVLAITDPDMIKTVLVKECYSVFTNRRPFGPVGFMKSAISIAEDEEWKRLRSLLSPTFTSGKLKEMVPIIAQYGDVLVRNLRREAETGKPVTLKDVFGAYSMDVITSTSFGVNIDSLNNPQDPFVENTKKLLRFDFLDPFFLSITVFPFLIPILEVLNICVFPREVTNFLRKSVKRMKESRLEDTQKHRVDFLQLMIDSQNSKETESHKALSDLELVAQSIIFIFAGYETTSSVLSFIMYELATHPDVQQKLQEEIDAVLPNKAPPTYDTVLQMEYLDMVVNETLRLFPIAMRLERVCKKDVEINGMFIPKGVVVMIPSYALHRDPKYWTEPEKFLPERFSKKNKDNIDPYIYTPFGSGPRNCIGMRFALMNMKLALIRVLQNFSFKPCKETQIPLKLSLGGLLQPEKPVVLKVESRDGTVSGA
T6 sequence (P11712 whole entry): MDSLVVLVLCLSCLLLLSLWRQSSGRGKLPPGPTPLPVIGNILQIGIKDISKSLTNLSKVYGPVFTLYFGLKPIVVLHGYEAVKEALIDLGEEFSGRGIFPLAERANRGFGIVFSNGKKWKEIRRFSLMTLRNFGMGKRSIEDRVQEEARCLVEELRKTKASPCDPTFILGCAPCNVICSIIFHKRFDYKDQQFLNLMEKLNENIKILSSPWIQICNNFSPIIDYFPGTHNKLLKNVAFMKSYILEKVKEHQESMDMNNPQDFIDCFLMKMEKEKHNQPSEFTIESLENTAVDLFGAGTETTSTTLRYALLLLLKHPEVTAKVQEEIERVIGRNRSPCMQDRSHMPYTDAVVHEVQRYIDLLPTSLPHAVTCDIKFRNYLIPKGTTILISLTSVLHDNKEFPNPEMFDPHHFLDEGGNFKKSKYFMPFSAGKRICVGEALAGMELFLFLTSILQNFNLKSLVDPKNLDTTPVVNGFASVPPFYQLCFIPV
T7 sequence (P10635 whole entry): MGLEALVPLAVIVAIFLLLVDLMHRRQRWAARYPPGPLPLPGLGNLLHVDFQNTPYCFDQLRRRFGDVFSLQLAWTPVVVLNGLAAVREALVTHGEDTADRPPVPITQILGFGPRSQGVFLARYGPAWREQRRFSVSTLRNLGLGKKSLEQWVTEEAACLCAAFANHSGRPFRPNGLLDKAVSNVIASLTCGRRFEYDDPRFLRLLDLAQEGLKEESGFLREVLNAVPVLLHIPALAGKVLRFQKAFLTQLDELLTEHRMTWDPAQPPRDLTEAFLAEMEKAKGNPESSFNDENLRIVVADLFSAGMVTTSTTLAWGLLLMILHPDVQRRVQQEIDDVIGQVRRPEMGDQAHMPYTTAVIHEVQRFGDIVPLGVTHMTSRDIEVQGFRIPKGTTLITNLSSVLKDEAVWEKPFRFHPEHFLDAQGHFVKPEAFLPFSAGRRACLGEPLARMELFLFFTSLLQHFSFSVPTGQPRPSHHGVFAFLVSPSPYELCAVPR
T3 sequence (P33261 whole entry): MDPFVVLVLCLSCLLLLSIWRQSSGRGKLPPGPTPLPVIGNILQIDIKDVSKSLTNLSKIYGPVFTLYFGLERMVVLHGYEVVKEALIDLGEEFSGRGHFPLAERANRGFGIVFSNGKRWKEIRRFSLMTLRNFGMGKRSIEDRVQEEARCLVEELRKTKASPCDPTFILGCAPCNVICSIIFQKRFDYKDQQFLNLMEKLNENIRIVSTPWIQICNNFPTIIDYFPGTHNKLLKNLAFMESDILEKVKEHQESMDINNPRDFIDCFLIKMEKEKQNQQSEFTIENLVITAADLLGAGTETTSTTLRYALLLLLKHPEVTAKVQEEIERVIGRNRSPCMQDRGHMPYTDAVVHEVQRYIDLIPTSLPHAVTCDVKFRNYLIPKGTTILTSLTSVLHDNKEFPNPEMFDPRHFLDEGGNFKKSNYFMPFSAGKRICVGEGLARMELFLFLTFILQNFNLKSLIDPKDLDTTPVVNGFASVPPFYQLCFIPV

| Compound | Binding assay (1 μLM) [1] | IC50 [2] | other results |
| --- | --- | --- | --- |
| C[C@H](NC(=O)c1ccc2c(c1)CCCN2Cc1ccccc1-c1ccc(C(=O)O)cc1)c1ccc2ccccc2c1 [Example 156, (S)-2′-((6-((1-(naphthalene-2-yl)ethyl)carbamoyl)-3,4-dihydroquinoline-1(2H)-yl)methyl)-[1,1′-biphenyl]-4-carboxylic acid] | + | 55.2 µM |  |
| Cc1c(C)n(Cc2ccc(-c3ccccc3C(=O)O)cc2)c2ccc(C(=O)N[C@@H](C)c3ccc([N+](=O)[O-])cc3)cc12 [SR1664] |  |  | fat generation in bone cells [3]: does not induce problems such as fat generation in bone cells |
| Cc1ccc([C@H](C)NC(=O)c2ccc3c(c2)CCCN3Cc2ccc(-c3ccccc3C(=O)[O-])cc2)cc1F.[Na+] [Example 56, sodium (S)-4′-((6-((1-(3-fluoro-4-methylphenyl)ethyl)carbamoyl)-3,4-dihydroquinoline-1(2H)-yl)methyl)-[1,1′-biphenyl]-2-carboxylate] | ++++ | 72.6 µM | CYP(10 μL, %) 2C19 [4]: 85.71%; CYP(10 μL, %) 3A4 [5]: 54.62%; CYP(10 μL, %) 1A2 [6]: 100.73%; CYP(10 μL, %) 2C9 [7]: 55.36%; CYP(10 μL, %) 2D6 [8]: 94.15%; suppression of CYP isozymes 1A2, 2C9, 2C19, and 2D6 compared with SR1664 and SR1824 [9]: less than the compounds of the comparative examples; also recorded: less strongly than the compounds of the Comparative Examples |
| C[C@H](NC(=O)c1ccc2c(c1)CCCN2Cc1ccccc1-c1ccc(C(=O)O)cc1)c1ccc([N+](=O)[O-])cc1 [Example 155, (S)-2′-((6-((1-(4-nitrophenyl)ethyl)carbamoyl)-3,4-dihydroquinoline-1(2H)-yl)methyl)-[1,1′-biphenyl]-4-carboxylic acid] | + | 73.6 µM |  |
| C[C@H](NC(=O)c1ccc2c(c1)CCCN2Cc1ccccc1-c1ccc(C(=O)O)cc1)c1ccc(C#N)cc1 [Example 157, (S)-2′-((6-((1-(4-cyanophenyl)ethyl)carbamoyl)-3,4-dihydroquinoline-1(2H)-yl)methyl)-[1,1′-biphenyl]-4-carboxylic acid] | ++ | 42.7 µM |  |
